Read-outs that look alike come from different tables or passages of the source.
Assays:
in vivo [1] = details: rat, iv, 1.4 mg/kg
Protocol: 113 was dissolved in 4% NaHCO3 in saline for IV administration. The detailed procedure of dosing solution preparation was presented in Appendix I.
15 animals were placed on the study. The animals in IV arm were free access to food and water. For PO dose group, the animals were fasted overnight prior to dosing and the food was resumed 4 hours postdose.
The IV injection was conducted via foot dorsal vein. PO via oral gavage.
Blood collection: The animal is restrained manually. Approximately 200 μL of blood/time point is collected into sodium heparin tube via cardiac puncture for terminal bleeding (anesthetized under carbon dioxide). Blood sample will be put on ice and centrifuged to obtain plasma sample (2000 g, 5 min under 4° C.) within 10 minutes.
Liver collection: The animal will be euthanized with carbon dioxide inhalation. Open abdominal cavity with scissor to expose internal organs. Hold the carcass in an upright position and allow the organs to fall forward. Cut the connective tissues and remove the organs. Then the organs are rinsed with cold saline, dried on filtrate paper, placed into a screw-top tube and weighed, snap frozen by placing into dry-ice immediately.
Brain collection: Make a mid-line incision in the animals scalp and retract the skin. Using small bone cutters and rongeurs, remove the skull overlying the brain. Remove the brain using a spatula and rinse with cold saline, dried on filtrate paper, placed into a screw-top tube and weighed, snap frozen by placing into dry-ice immediately. […] Plasma, brain and liver samples were stored at approximately −80° C. until analysis. The backup samples will be discarded after three weeks after in-life completion unless requested. The unused dosing solutions will be discarded within three weeks after completion of the study.
Pharmacokinetic Analysis Software: The PK parameters were determined by non-compartmental model of non-compartmental analysis tool, Pharsight Phoenix WinNonlin® 6.2 software. […] Concentration data within 80%-120% of LLOQ was considered within normal instrumental variation and presented in the results. Terminal t1/2 calculation: Time points were automatic selected by “best fit” model for terminal half life estimation as the first option. Manual selection was applied when “best fit” could not well define the terminal phase. Results

[2] = Pharmacokinetic study of 151 (iv, oral) in SD rats: 151 and 100 in plasma; assay type: in vivo; details: male, rat, in vivo, iv, 1 mg/kg, 5 h
Protocol: The absolute bioavailability was evaluated.
To each sample, 160 μL of acetonitrile were added.
The mass spectrometer was operated in the positive mode.
Quantification was achieved by the external standard method.
Calibration Curve for Plasma Samples
LB100 concentrations of the LB151 plasma samples were also measured and pharmacokinetic parameters were calculated.

in vivo [3] = assay type: in vivo; details: rat, in vivo
Protocol: 100 was administrated via iv route at 0.5, 1.0 and 1.5 mg/kg into SD rats. The blood, liver and brain tissue samples were collected at predetermined times from rats.
Twelve (12) female SD rats per group were dosed by iv with 100. The rats were fasted overnight prior to dosing, with free access to water. Foods were withheld for 2 hours post-dose. Blood, liver and brain tissue samples in two animals each group were collected at each time point, within 10% of the scheduled time for each time point. Two extra animals were used for analytic method development. Blood (>0.3 mL) were collected via aorta abdominalis in anaesthetic animals into tubes containing heparin at 15 min, 1, 2, 6, 10 and 24 hours after iv administration. Liver and brain tissues were collected immediately after animal death. The liver and brain tissues were excised and rinsed with cold saline to avoid blood residual. Upon collection, each sample was placed on ice and the blood samples were subsequently centrifuged (4° C., 11000 rpm, 5 min) to separate plasma. The obtained plasma, liver and brain tissue samples were stored at −70° C. until LC-MS/MS analysis.
AUC0-∞ (AUCINF) is the area under the plasma concentration-time curve with last concentration extrapolated based on the elimination rate constant.

[4] = system: PP2A in circulating white blood cells; experiment: Inhibition of PP2A in circulating white blood cells after slow iv 100; assay type: in vivo; details: rat
[5] = system: broad spectrum of human cancer cell lines; experiment: Activity of compound 100 against human cancer cell lines; assay type: cell-based
U251 human GBM cells = details: compound 100 ip plus radiation
Protocol: Compound 100 is a serine-threonine phosphatase inhibitor that potentiates the activity of standard chemotherapeutic drugs and radiation. The mechanism of potentiation is impairment of multiple steps in a DNA-damage repair process and inhibition of exit from mitosis. […] Mice bearing subcutaneous (sc) xenografts of U251 human GBM cells were treated with compound 100 intraperitoneally together with radiation, each given daily for 5 days×3 courses.

[6] = Stability in the presence of microsomes; assay type: in vitro ADME; details: mouse, rat, dog, monkey, and human microsomes; relative to verapamil
[7] = Radiation dose enhancement by compound 100; details: compound 100 treatment
[8] = rat, in vivo
[9] = rat, in vivo; remark: listed apart in the source
[10] = female rats, day 4, cited from earlier work
[11] = female dogs, day 4, cited from earlier work
[12] = male, SD, Liver-plasma concentration ratio of 100
[13] = male, SD, liver concentration of 100
[14] = male, SD, plasma concentration of 100
[15] = male, Sprague-Dawley, Liver-plasma concentration ratio of 100

CN1CCN(C(=O)C2C3CCC(O3)C2C(=O)O)CC1 (centres unmarked) [Compound 100]
plasma concentration of 100 (in vivo [1]; male, SD, 6 hr): 3.25 ng/mL | Kp at 0.25 hr (in vivo [1]; [12]): 4.1 | Kp at 1 hr (in vivo [1]; [12]): 4.98 | concentration at 0.25 hr (in vivo [1]; [13]): 2090 ng/g | concentration at 1 hr (in vivo [1]; [13]): 1360 ng/g | concentration at 2 hr (in vivo [1]; [13]): 425 ng/g | concentration at 6 hr (in vivo [1]; [13]): 23.8 ng/g | concentration at 0.25 hr (in vivo [1]; [14]): 510 ng/mL | concentration at 1 hr (in vivo [1]; [14]): 273 ng/mL | concentration at 6 hr (in vivo [1]; [14]): 3.25 ng/mL | AUC(0-t) ratio of liver over plasma (in vivo [1]; male, Sprague-Dawley): 399 | Liver-plasma concentration ratio of 100 (in vivo [1]; male, Sprague-Dawley, 6 hr): 7.32 | Kp at 2 hr (in vivo [1]; [15]): 4.95 | Kp at 6 hr (in vivo [1]; [15]): 7.32 | AUC(0-last) in liver (in vivo [1]): 2804 ng·h/g | AUC(0-∞) in liver (in vivo [1]): 2834 ng·h/g | AUClast-liver/AUClast-plasma of 100 (in vivo [1]): 399 | Plasma Concentrations of 100 ([2]; Sprague-Dawley (SD)): 5.10 ng/mL | Plasma Concentrations of 100 ([2]; Sprague-Dawley): 10.2 ng/mL | half-life (in vivo [3]; Sprague-Dawley): ≤ 1 h | mean Cmax in plasma (in vivo [3]; female, Sprague-Dawley, iv, 1.5 mg/kg): 1110 to 3664 ng/mL | detectability in liver and brain tissue samples (in vivo [3]; iv): detectable | AUClast in brain (in vivo [3]; iv, 1.5 mg/kg): 10.8 to 125.5 ng·h/g | AUClast in liver (in vivo [3]; iv, 1.5 mg/kg): 758.6 to 9081.0 ng·h/g | inhibition of PP2A in circulating white blood cells ([4]; slow iv 100 at 0.375 mg/kg): 9% | inhibition of PP2A in circulating white blood cells ([4]; slow iv 100 at 0.75 mg/kg): 15% | inhibition of PP2A in circulating white blood cells ([4]; slow iv 100 at 1.5 mg/kg): 25% | IC50 [5]: 1 to 3 µM | recurrence of the remaining 40% of xenografts vs radiation alone (U251 human GBM cells): two months later | xenografts eliminated (U251 human GBM cells; daily for 5 days x 3 courses, 6 months plus follow-up): 60% | stability in presence of microsomes [6]: stable relative to verapamil | radiation dose enhancement factor [7]: 1.45 | oral bioavailability [8]: 1% | plasma level after oral administration [8]: little is present in plasma after oral administration | passage of blood brain barrier (BBB) [9]: does not readily pass the blood brain barrier (BBB) | % AUC* Extrapolated ([10]; 0.5 mg/kg): 5.6% | Co ([10]; 0.5 mg/kg): 1497 ng/mL | DN AUClast ([10]; 0.5 mg/kg): 904 | % AUC* Extrapolated ([10]; 0.75 mg/kg): 27% | Co ([10]; 0.75 mg/kg): 2347 ng/mL | DN AUClast ([10]; 0.75 mg/kg): 921 | % AUC* Extrapolated ([10]; 1.25 mg/kg): 17% | Co ([10]; 1.25 mg/kg): 3849 ng/mL | DN AUClast ([10]; 1.25 mg/kg): 1887 | Co ([11]; 0.15 mg/kg): 566 ng/mL | Co ([11]; 0.30 mg/kg): 857 ng/mL | Co ([11]; 0.50 mg/kg): 1930 ng/mL
